According to US8431557B2, “Treatment of menopause-associated symptoms” (Besins Healthcare Luxembourg SARL, priority 2006, dated 2013):

Key:
menopausal women [1] = assay: Placebo-controlled study: frequency of moderate to severe hot flushes; type: in vivo, human (women); design: key to Frequency of Moderate to Severe Hot Flushes, Mean Change from Baseline / Frequency of Moderate to Severe Hot Flushes, Mean: number of moderate-to-severe hot flushes per day; conditions: for Frequency of Moderate to Severe Hot Flushes, Mean: Baseline, daily average
Method: (§1) This study was a multi-centred, double-blind, placebo-controlled, parallel group comparison. A total of 351 subjects were enrolled at 78 sites in the United States.
(§2) A two-week, medication free, Pre-Treatment Phase was used to determine subject vasomotor symptoms. Efficacy assessments included the number and intensity of hot flushes per day, and severity of vulvar and vaginal atrophy symptoms.
(§3) The three treatment groups comprised the following dosages: • A 0.375 mg dose (1.25 g of gel @ 0.03%) applied to one arm and 0.9 g of placebo gel applied on the other arm once daily for 12 weeks; • A 0.27 mg dose (0.9 g of gel @ 0.03%) applied to one arm and 1.25 g of placebo gel applied on the other arm once daily for 12 weeks; and • 0.9 g of placebo gel applied to one arm and 1.25 g of placebo gel applied on the other arm once daily for 12 weeks.
(§4) The Treatment Phase was 12 weeks. A pre-treatment period of 2 weeks was used to initially evaluate each subject's vasomotor symptoms.
(§5) All data were analyzed using the approach of Observed Cases (OC).
(§6) For all continuous primary and secondary efficacy parameters, descriptive statistics tables and 2-way ANCOVA with fixed factors treatment and centre, and baseline value as covariate were provided. The interaction of treatment and centre was investigated using 2-way ANCOVA with fixed factors treatment, centre, and treatment-by-centre interaction with baseline value as covariate. To control the Type-I error rate, a step-down procedure using contrasts was performed to compare each treatment group to the placebo group. First, the group with the 0.375 mg dose was compared against placebo at the α=0.05 level (2-sided). If the null hypothesis was rejected, the group with the 0.27 mg dose was compared to placebo at the α=0.05 level (2-sided). Graphs were used to characterize the dose response. If the assumptions of the model were not met, then van Elteren's test with centre as the stratification variable was used in the step-down procedure. For categorical data, Fisher's exact test was used to compare treatment groups.
(§7) The study assessed the following variables: • Mean change in frequency of moderate to severe vasomotor symptoms from baseline to Week 4; • Mean change in frequency of moderate to severe vasomotor symptoms from baseline to Week 12; • Mean change in severity of moderate to severe vasomotor symptoms from baseline to Week 4; • Mean change in severity of moderate to severe vasomotor symptoms from baseline to Week 12; • Mean change in frequency of moderate-to-severe hot flushes at each week; • Mean change in severity of moderate-to-severe hot flushes at each week; • Mean change from baseline to Week 12 in the moderate to severe symptom of vulvar and vaginal atrophy that has been identified by the subject as being the most bothersome to her (vaginal pain, dryness, irritation/itching, bleeding, dysuria);
The baseline value was defined as the daily average of moderate to severe hot flushes during the 2 Pre-Treatment Phase weeks. The “daily average” was calculated from “the mean across the reported days at each week or at Pre-Treatment Phase weeks. If only mild hot flushes were reported on any day, the moderate to severe hot flush value for the subject on that day was zero. If less than 10 days of data were available for the baseline period, the baseline daily average was considered missing.
(§8) On a daily basis, the subject recorded the number of hot flushes and rated the intensity of each based on a four-point scale as follows: • 0 (none) • 1 (mild) Sensation of heat without perspiration • 2 (moderate) Sensation of heat with perspiration, but the subject was able to continue with their activity • 3 (severe) Sensation of heat with sweating, sufficiently severe to result in discontinuation of activity Assessment of Vulvar and Vaginal Atrophy Symptom Severity

menopausal women [2] = assay: Placebo-controlled study: severity of moderate to severe hot flushes; type: in vivo, human (women); design: key to Severity of Moderate to Severe Hot Flushes, Mean Change from Baseline / Severity of Moderate to Severe Hot Flushes, Mean: 0 none, 1 mild, 2 moderate, 3 severe hot flush intensity; conditions: for Severity of Moderate to Severe Hot Flushes, Mean: Baseline
Method: as §1, §2, §3, §4, §5, §6, §7
Severity of moderate to severe vasomotor symptoms was defined as (2*number of moderate hot flushes+3*number of severe hot flushes)/total number of moderate and severe hot flushes.
As with frequency, if less than 10 days of data were available for the baseline period, the baseline severity was considered missing.
as §8

C[C@]12CC[C@@H]3c4ccc(O)cc4CC[C@H]3[C@@H]1CC[C@@H]2O [estradiol, 17-beta estradiol]
Week at which statistical significance vs placebo was achieved, frequency of moderate to severe hot flushes (menopausal women [1]; 0.27 mg dose): 4 Week | Frequency of Moderate to Severe Hot Flushes, Mean (menopausal women [1]; 0.27 mg dose): 11.73 | Frequency of Moderate to Severe Hot Flushes, Mean Change from Baseline (menopausal women [1]; 0.27 mg dose, Week 1): −1.05 | Frequency of Moderate to Severe Hot Flushes, Mean Change from Baseline (menopausal women [1]; 0.27 mg dose, Week 2): −2.97 | Frequency of Moderate to Severe Hot Flushes, Mean Change from Baseline (menopausal women [1]; 0.27 mg dose, Week 3): −4.08 | Frequency of Moderate to Severe Hot Flushes, Mean Change from Baseline (menopausal women [1]; 0.27 mg dose, Week 4): −4.63 | Frequency of Moderate to Severe Hot Flushes, Mean Change from Baseline (menopausal women [1]; 0.27 mg dose, Week 5): −5.20 | Frequency of Moderate to Severe Hot Flushes, Mean Change from Baseline (menopausal women [1]; 0.27 mg dose, Week 6): −5.62 | Frequency of Moderate to Severe Hot Flushes, Mean Change from Baseline (menopausal women [1]; 0.27 mg dose, Week 7): −6.02 | Frequency of Moderate to Severe Hot Flushes, Mean Change from Baseline (menopausal women [1]; 0.27 mg dose, Week 8): −6.02 | Frequency of Moderate to Severe Hot Flushes, Mean Change from Baseline (menopausal women [1]; 0.27 mg dose, Week 9): −6.24 | Frequency of Moderate to Severe Hot Flushes, Mean Change from Baseline (menopausal women [1]; 0.27 mg dose, Week 10): −6.29 | Frequency of Moderate to Severe Hot Flushes, Mean Change from Baseline (menopausal women [1]; 0.27 mg dose, Week 11): −6.29 | Frequency of Moderate to Severe Hot Flushes, Mean Change from Baseline (menopausal women [1]; 0.27 mg dose, Week 12): −6.19 | Week at which statistical significance vs placebo was achieved, frequency of moderate to severe hot flushes (menopausal women [1]; 0.375 mg dose): 2 Week | Frequency of Moderate to Severe Hot Flushes, Mean (menopausal women [1]; 0.375 mg dose): 12.50 | Frequency of Moderate to Severe Hot Flushes, Mean Change from Baseline (menopausal women [1]; 0.375 mg dose, Week 1): −1.93 | Frequency of Moderate to Severe Hot Flushes, Mean Change from Baseline (menopausal women [1]; 0.375 mg dose, Week 2): −4.36 | Frequency of Moderate to Severe Hot Flushes, Mean Change from Baseline (menopausal women [1]; 0.375 mg dose, Week 3): −5.73 | Frequency of Moderate to Severe Hot Flushes, Mean Change from Baseline (menopausal women [1]; 0.375 mg dose, Week 4): −6.91 | Frequency of Moderate to Severe Hot Flushes, Mean Change from Baseline (menopausal women [1]; 0.375 mg dose, Week 5): −7.56 | Frequency of Moderate to Severe Hot Flushes, Mean Change from Baseline (menopausal women [1]; 0.375 mg dose, Week 6): −7.83 | Frequency of Moderate to Severe Hot Flushes, Mean Change from Baseline (menopausal women [1]; 0.375 mg dose, Week 7): −8.05 | Frequency of Moderate to Severe Hot Flushes, Mean Change from Baseline (menopausal women [1]; 0.375 mg dose, Week 8): −8.49 | Frequency of Moderate to Severe Hot Flushes, Mean Change from Baseline (menopausal women [1]; 0.375 mg dose, Week 9): −8.69 | Frequency of Moderate to Severe Hot Flushes, Mean Change from Baseline (menopausal women [1]; 0.375 mg dose, Week 10): −8.47 | Frequency of Moderate to Severe Hot Flushes, Mean Change from Baseline (menopausal women [1]; 0.375 mg dose, Week 11): −8.81 | Frequency of Moderate to Severe Hot Flushes, Mean Change from Baseline (menopausal women [1]; 0.375 mg dose, Week 12): −8.76 | Efficacy vs. placebo, frequency and severity of moderate to severe hot flushes (menopausal women [1]; 0.375 mg dose, Weeks 4 and 12, all 4 criteria): efficacious vs. placebo | Week at which statistical significance vs placebo was achieved, severity of moderate to severe hot flushes (menopausal women [2]; 0.27 mg dose): 8 Week | Severity of Moderate to Severe Hot Flushes, Mean (menopausal women [2]; 0.27 mg dose): 2.52 | Severity of Moderate to Severe Hot Flushes, Mean Change from Baseline (menopausal women [2]; 0.27 mg dose, Week 1): −0.02 | Severity of Moderate to Severe Hot Flushes, Mean Change from Baseline (menopausal women [2]; 0.27 mg dose, Week 2): −0.10 | Severity of Moderate to Severe Hot Flushes, Mean Change from Baseline (menopausal women [2]; 0.27 mg dose, Week 3): −0.21 | Severity of Moderate to Severe Hot Flushes, Mean Change from Baseline (menopausal women [2]; 0.27 mg dose, Week 4): −0.26 | Severity of Moderate to Severe Hot Flushes, Mean Change from Baseline (menopausal women [2]; 0.27 mg dose, Week 5): −0.29 | Severity of Moderate to Severe Hot Flushes, Mean Change from Baseline (menopausal women [2]; 0.27 mg dose, Week 6): −0.36 | Severity of Moderate to Severe Hot Flushes, Mean Change from Baseline (menopausal women [2]; 0.27 mg dose, Week 7): −0.40 | Severity of Moderate to Severe Hot Flushes, Mean Change from Baseline (menopausal women [2]; 0.27 mg dose, Week 8): −0.46 | Severity of Moderate to Severe Hot Flushes, Mean Change from Baseline (menopausal women [2]; 0.27 mg dose, Week 9): −0.60 | Severity of Moderate to Severe Hot Flushes, Mean Change from Baseline (menopausal women [2]; 0.27 mg dose, Week 10): −0.58 | Severity of Moderate to Severe Hot Flushes, Mean Change from Baseline (menopausal women [2]; 0.27 mg dose, Week 11): −0.66 | Severity of Moderate to Severe Hot Flushes, Mean Change from Baseline (menopausal women [2]; 0.27 mg dose, Week 12): −0.70 | Week at which statistical significance vs placebo was achieved, severity of moderate to severe hot flushes (menopausal women [2]; 0.375 mg dose): 4 Week | Severity of Moderate to Severe Hot Flushes, Mean (menopausal women [2]; 0.375 mg dose): 2.52 | Severity of Moderate to Severe Hot Flushes, Mean Change from Baseline (menopausal women [2]; 0.375 mg dose, Week 1): 0.00
